“And” between values parts separate entries of the source, which are not always exact repeats. Equal values may be shown once. Read-outs that look alike come from different tables or passages of the source.
Tests used:
[1] = oral, cited from earlier work
[2] = Particle size analysis of isotretinoin powder by laser scattering granulometer, before and after dispersion in liquid media; assay type: physicochemical
Protocol: The ability of glycol ethers to stabilize the particle size of an active principle was established by means of studies aimed at comparing the particle size of an isotretinoin powder supposed to have, according to its supplier, a median of 20 μm, before and after dispersion in 5 different liquid media consisting, respectively, of:
The particle size of the isotretinoin powder before dispersion in the liquid media, ie in dry form, was analyzed on samples of 2 g of powder (the vehicle in this case being compressed air), whereas its particle size after dispersion in the various liquid media was analyzed on samples of 20 ml containing 2% (w/v) of this powder, except in the case of the oily mixture, in which the content of isotretinoin powder in the samples was 6.5% (w/v).
All the particle size analyses were carried out using a Mastersizer Banc Long laser scattering granulometer (Malvern Instruments Ltd company) and an MS1 sampler from the same company.

[3] = isotretinoin powder, supplier's statement; cited from earlier work

| Compound | bioavailability ([1]; gel capsules of 10 and 25 mg, on average) [%] | Median of the particle size ([2]; after dispersion in Labrafac PG (propylene glycol dicaprylocaprate), 2% (w/v)) [μm] | Median of the particle size ([2]; after dispersion in Labrasol (caprylocapric macrogolglycerides), 2% (w/v)) [μm] | Median of the particle size ([2]; after dispersion in Transcutol (diethylene glycol monoethyl ether, DGME), 2% (w/v)) [μm] | Median of the particle size ([2]; after dispersion in oily mixture of the Roaccutane type (yellow wax, soybean oils, partially hydrogenated plant oil, medium-chain triglyceride), 6.5% (w/v)) [μm] | Median of the particle size ([2]; isotretinoin powder in dry form, before dispersion (2 g samples, compressed air)) | bioavailability ([1]; soft capsules (Roaccutane), suspension in oily vehicle) | Median particle size according to supplier [3] [μm] |
| --- | --- | --- | --- | --- | --- | --- | --- | --- |
| COc1cc(C)c(/C=C/C(C)=C/C=C/C(C)=C/C(=O)O)c(C)c1C [acitretin] | 60 |  |  |  |  |  |  |  |
| CC1=C(/C=C/C(C)=C/C=C/C(C)=C\C(=O)O)C(C)(C)CCC1 [isotretinoin, 13-cis-retinoic acid] |  | 193.15 | 139.77 | 20.86 | 82.92 | 20 μm and 19.49 μm | about 25% | 20 |

— patent US20040143012A1, “Method for stabilising particle size distribution of powder active principle dispersed in a liquid and uses thereof” (priority 2000, published 2004)
